From US5847125A, “Amino acid derivatives with anticholecystokinin activity” (James Black Foundation Limited, priority 1992, dated 1998)
Where two headings read alike, the source gives them in different places.

How the values were obtained:
CCKB receptor = biological target: T1, CCKB receptor (Mus musculus, UniProt P56481); assay: CCKB radioligand binding assay in mouse cortical membranes, [125I] CCK-8S (selectivity testing); parameters: species or system male mice; details: [125I] CCK-8S 200 pM, 150 min at 21°, pH 7.2, non-specific binding L-365,260, read-out: pKi CCKB (converted)
T1 construct: CCKB receptor in mouse cortical membranes; from tissue; host or cells: mouse cerebral cortex membranes (male mice, Charles River)
T1 sequence (P56481 1-453): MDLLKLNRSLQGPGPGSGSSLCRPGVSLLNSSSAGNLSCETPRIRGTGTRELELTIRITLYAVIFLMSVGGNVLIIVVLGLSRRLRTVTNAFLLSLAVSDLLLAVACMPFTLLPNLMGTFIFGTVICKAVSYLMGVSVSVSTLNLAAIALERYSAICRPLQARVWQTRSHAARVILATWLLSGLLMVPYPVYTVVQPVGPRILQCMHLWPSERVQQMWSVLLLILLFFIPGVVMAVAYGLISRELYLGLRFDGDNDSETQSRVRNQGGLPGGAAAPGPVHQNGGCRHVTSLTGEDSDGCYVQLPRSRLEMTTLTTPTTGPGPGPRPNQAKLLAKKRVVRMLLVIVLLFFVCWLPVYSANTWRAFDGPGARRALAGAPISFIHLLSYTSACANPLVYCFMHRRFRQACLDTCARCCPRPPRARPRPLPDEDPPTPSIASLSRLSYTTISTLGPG
Procedure: The compounds were assayed for selectivity with respect to the CCKB receptor in mouse cortical membranes by means of a radioligand binding assay. The procedure was as follows:
The whole brains from male mice (CDI 22-25 g; Charles River) were removed and placed in ice-cold buffer (pH 7.2 at 21°±3° C.) of the following composition (mM); 10 HEPES, 130 NaCl, 4.7 KCl, 5 MgCl2, 1 EDTA and containing 0.25 g. 1^-1 bacitracin.
The cortex was dissected, weighed and homogenised in 40 ml ice-cold buffer using a Teflon-in-glass homogeniser. The homogenate was centrifuged at 39,800 g for 20 min at 4° C., the supernatant discarded and the pellet resuspended by homogenisation in fresh buffer. The homogenate was recentrifuged (39,800 g; 20 min at 4° C.) and the final pellet was resuspended in HEPES buffer to give a tissue concentration of 2 mg ml^-1 (original wet weight).
The membranes (400 μl) were incubated for 150 min at 21°±3° C. in a final volume of 0.5 ml with HEPES buffer containing [^125 I] CCK-8S (0.05 ml; 200 pM NEN 2200Ci.mmol^-1) and competing compound. Total and non-specific binding of [^125 I] CCK-8S were defined using 0.05 ml of buffer and 0.05 ml of 10 mM L-365,260, respectively. The assay was terminated by rapid filtration through pre-soaked Whatman GF/B filters using a Brandell Cell harvester. The filters were washed (3×3 ml) with ice-cold 50 mM Tris-HCl (pH 7.4 at 4° C.) and bound radioactivity determined by counting (1 min.) in a gamma counter.

[1] = biological target: T2, CCK (gallbladder) receptor (Cavia porcellus, UniProt Q63931); assay: CCK-receptor bioassay, isolated guinea-pig gall-bladder strip preparations, CCK-8 as agonist; assay type: cell-based, male Dunkin-Hartley guinea-pigs; details: negative log10 of equilibrium dissociation constant; guinea-pig gall-bladder strips; CCK-8 agonist; test compound incubated for 60 minutes; 37° C; read-out: pKB versus CCK (gallbladder) (converted)
T2 construct: Isolated, strip preparations were prepared from gall-bladders removed from male Dunkin-Hartley guinea-pigs; from tissue; host or cells: guinea-pig gall-bladder strips
T2 sequence (Q63931 1-430): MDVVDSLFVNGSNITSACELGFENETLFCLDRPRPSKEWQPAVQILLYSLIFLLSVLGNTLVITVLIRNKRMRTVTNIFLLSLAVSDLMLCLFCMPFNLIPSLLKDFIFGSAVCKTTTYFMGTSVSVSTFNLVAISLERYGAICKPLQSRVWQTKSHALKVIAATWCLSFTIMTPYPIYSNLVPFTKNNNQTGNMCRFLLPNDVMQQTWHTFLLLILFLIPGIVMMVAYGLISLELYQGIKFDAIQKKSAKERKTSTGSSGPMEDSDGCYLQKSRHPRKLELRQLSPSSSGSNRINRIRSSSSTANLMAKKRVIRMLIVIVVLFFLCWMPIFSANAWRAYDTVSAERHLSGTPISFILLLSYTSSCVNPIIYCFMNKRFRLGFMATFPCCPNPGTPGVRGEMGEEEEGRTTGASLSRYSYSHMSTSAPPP
Procedure: The compounds of the examples were assayed using a CCK-receptor bioassay as follows:
Isolated, strip preparations were prepared from gall-bladders removed from male Dunkin-Hartley guinea-pigs (250-500 g body weight) according to the method of La Morte, W. W., et al., J.P.E.T., 217, (3), 638-644 (1981).
The complete gall-bladder is removed and opened along the longitudinal axis. Strips measuring 3 mm in the longitudinal axis and 1 mm in the transverse axis are cut and then tied with cotton to stainless steel wires. The preparation is connected to a GRASS FTO3 isometric transducer under an initial loading tension of 1 g and is immersed in 20 mls of Krebs solution maintained at 37° C. and gassed with 95% O2 /5% CO2. The Krebs solution is as detailed above in connection with the fundus assay, except that the Ca^2+ concentration is decreased to 0.5 mM. After 30 mins the preparation is washed. Drug addition begins after an initial 90 min stabilisation period. Responses are measured as changes in tension from that immediately prior to any drug addition. Single cumulative agonist concentration-effect curves, using CCK-8 as agonist, are obtained on each preparation in the absence and presence of test compound which has been incubated for 60 minutes. The antagonist activity of the test compound is estimated and expressed as the negative logarithm (base 10) of the equilibrium dissociation constants (pKB) using the modifications of standard competitive analysis described by Black et al., Br. J. Pharmacol.,86,571-579, (1985) and Shankley et al., Br. J. Pharmacol.,94,264-274 (1988).

CCKA = biological target: T3, CCKA (Cavia porcellus, UniProt Q63931); assay: CCKA binding assay, pancreas membranes, [125I]-CCK8(S); parameters: species or system male guinea-pigs (Dunkin Hartley)
T3 construct: The pancreatata were removed from male guinea-pigs (200-300 g; Dunkin Hartley); from tissue; host or cells: guinea-pig pancreas membranes
T3 sequence (Q63931 1-430): T2 sequence (Q63931 1-430)
Procedure: The compounds of the examples were also tested in a CCKA binding assay as follows:
The pancreatata were removed from male guinea-pigs (200-300 g; Dunkin Hartley) and placed in ice-cold HEPES buffer (pH 7.2@21°±3°). The pancreatata were homogenised in 40 ml ice-cold HEPES buffer using a polytron (Brinkmann, PT10, setting 10) 4×1 second. The homogenate was centrifuged at 39,800 g for 15 min at 4°. The supernatant was discarded and the pellet re-suspended using a Teflon-in-glass homogeniser in 20 volumes of fresh buffer and re-centrifuged as above. The final pellet was re-suspended using a Teflon-in-glass homogeniser to a tissue concentration of 1 mg ml^31 1 (original wet weight), and filtered through 500 μm pore-size Nytex mesh.
The membranes (400 μl; containing 0.375 μM PD134,308) are incubated for 150 minutes at 21°±3° in a final volume of 0.5 ml with HEPES buffer containing [^125 I]--CCK8 (S) (50 μl; 200 pM) and competing compound. Total and non-specific binding of [^125 I]--CCK8 (S) are defined using 50 μl of buffer and 50 μl of 100 nM L-364,718 respectively. The assay is terminated by rapid filtration through pre-soaked Whatman GF/B filters using a Brandell Cell Harvester. The filters were washed (3×3 ml) with ice-cold 50 mM Tris HCl (pH 7.4 at 4°) and bound radioactivity is determined by counting (1 min) in a gamma counter.

[2] = guinea-pig pancreas membranes, [125I]-CCK8(S) 200 pM, 0.375 μM PD134,308, 150 minutes at 21°, non-specific binding 100 nM L-364,718, read-out: pKi CCKλ (converted)

SMILES | Ki (CCKB receptor) [µM] | Kb [1] [µM] | Ki (CCKA; [2]) [µM] | Ki (CCKA) [µM]
O=C(O)C[C@H](NS(=O)(=O)c1ccc2ccccc2c1)C(=O)NCCC12CC3CC(CC(C3)C1)C2 [Example 12, 2-Naphthalenesulphonyl-L-aspartyl 2-(1-adamantyl) ethylamide] | 7.94 | 0.0501 | 0.126 | 
CCCCCN(CCCCC)C(=O)[C@H](CC(=O)O)NS(=O)(=O)c1cccc2ccccc12 [Example 21, 1-Naphthalenesulphonyl-L-aspartyl dipentylamide] | 10 | 1.26 | 2 | 
O=C(O)C[C@H](NS(=O)(=O)c1ccc2ccccc2c1)C(=O)N1CCC2(CC1)OCCO2 [Example 14, 2-Naphthalenesulphonyl-L-aspartyl 1,4-dioxa-8-azaspiro-[5.4]decylamide] |  |  |  | 10
CCCCCOC(=O)[C@H](CC(=O)O)NS(=O)(=O)c1ccc2ccccc2c1 [Example 20, 2-Naphthalenesulphonyl-L-aspartyl pentyl ester] | 20 |  | 2 | 
O=C(O)C[C@H](NS(=O)(=O)c1ccc2ccccc2c1)C(=O)NCCC1CCCCC1 [Example 11, 2-Naphthalenesulphonyl-L-aspartyl 2-cyclohexylethylamide] | 25.1 | 0.0794 | 0.158 | 
O=C(O)C[C@H](NS(=O)(=O)c1ccc2ccccc2c1)C(=O)N1CCC2(CCCC2)CC1 [Example 13, 2-Naphthalenesulphonyl-L-aspartyl 3-azaspiro[5.4]decylamide] | 10 | 6.31 | 6.31 | 
O=C(O)C[C@H](NS(=O)(=O)c1ccc2ccccc2c1)C(=O)NCC12CC3CC(CC(C3)C1)C2 [Example 10, 2-Naphthalenesulphonyl-L-aspartyl 1-adamantylmethylamide] | 6.31 | 0.0631 | 0.0501 | 
CCCCCNC(=O)[C@H](CC(=O)O)NS(=O)(=O)c1ccc2ccccc2c1 [Example 5, 2-Naphthalenesulphonyl-L-aspartyl pentylamide] | 100 | 0.398 | 1 | 
O=C(O)C[C@H](NS(=O)(=O)c1ccc2ccccc2c1)C(=O)NC1CCCCCCCCCCC1 [Example 16, 2-Naphthalenesulphonyl-L-aspartyl cyclododecylamide] | 10 | 0.0794 | 0.0398 | 
CCCCCN(CCCCC)C(=O)[C@H](CC(=O)O)NS(=O)(=O)c1ccc2ccccc2c1 [Example 1, 2-Naphthalenesulphonyl-L-aspartyl dipentylamide] | 7.94 | 0.2 | 0.251 | 
CCCCC(CC)CN(CC(CC)CCCC)C(=O)[C@H](CC(=O)O)NS(=O)(=O)c1ccc2ccccc2c1 (stereo partly drawn) [Example 17, 2-Naphthalenesulphonyl-L-aspartyl di(2-ethyl)hexylamide] | 2 |  | 1.26 | 
CCCCCC(CCCCC)NC(=O)[C@H](CC(=O)O)NS(=O)(=O)c1ccc2ccccc2c1 [Example 9, 2-Naphthalenesulphonyl-L-aspartyl (1-pentyl)hexylamide] | 3.98 | 0.2 | 0.398 | 
CC(C)(C)CCNC(=O)[C@H](CC(=O)O)NS(=O)(=O)c1ccc2ccccc2c1 [Example 6, 2-Naphthalenesulphonyl-L-aspartyl (3,3-dimethyl)-butylamide] | 25.1 | 0.501 | 0.501 | 
O=C(O)C[C@H](NS(=O)(=O)c1ccc2ccccc2c1)C(=O)N1CC2CCC(CC2)C1 [Example 15, 2-Naphthalenesulphonyl-L-aspartyl 3-azabicyclo-[3.2.2]nonylamide] | 25.1 |  | 10 | 
CCCCN(CCCC)C(=O)[C@H](CC(=O)O)NS(=O)(=O)c1ccc2ccccc2c1 [Example 3, 2-Naphthalenesulphonyl-L-aspartyl dibutylamide] | 25.1 | 0.631 | 1 | 
CCCCCN(CCCCC)C(=O)[C@H](CCC(=O)O)NS(=O)(=O)c1ccc2ccccc2c1 [Example 19, 2-Naphthalenesulphonyl-L-glutamyl dipentylamide] | 3.16 | 0.631 | 1.58 | 
